Source: patent US20130252814A1, “SYNERGISTIC HERBICIDAL COMPOSITION CONTAINING PENOXSULAM AND PRETILACHLOR” (DOW AGROSCIENCES LLC, priority 2011, published 2013)

Tested on: ECHCG - Echinochloa crus-galli (barnyardgrass)
Experiment: Preemergence herbicidal activity of mixtures under field conditions, seeded rice, field trial Taiwan
Assay type: in vivo
Description: A field trial was conducted in rice in Taiwan using standard herbicide small plot research methodology. Plot size was 1 meter (m) wide by 1 m long. There were 3 replicates per treatment. Soil type was medium texture. Rice was sown by hand direct dry seeding as per normal local cultural practices. The rice crop was grown using normal cultural practices for fertilization, watering, flooding and maintenance to ensure good growth of the crop and the weeds. Treatments were applied by backpack sprayer using compressed air at 30 pounds per square inch (psi) spray pressure. Spray tips were Flat Fan Teejet nozzles, delivering a spray volume of 300 liters per hectare (L/ha). For each treatment, the appropriate formulated product amount to treat the plot area, to achieve the desired application rate, based on unit area of application (hectare), was calculated, measured, and mixed in water prior to applying with the backpack sprayer. Treatments were rated as compared to the untreated control plots. The treated plots and control plots were rated blind at various intervals after application. Ratings were based of Percent (%) Visual weed control, where 0 corresponds to no injury and 100 corresponds to complete kill. Colby's equation was used to determine the herbicidal effects expected from the mixtures (Colby, S. R. Calculation of the synergistic and antagonistic response of herbicide combinations. Weeds 1967, 15, 20-22). The following equation was used to calculate the expected activity of mixtures containing two active ingredients, A and B: Expected=A+B−(A×B/100) A=observed efficacy of active ingredient A at the same concentration as used in the mixture and B=observed efficacy of active ingredient B at the same concentration as used in the mixture.

SMILES	% Control ECHCG Obs (7 days after preemergence application, penoxsulam 7.5 gr ai/ha)	% Control ECHCG Obs (7 days after preemergence application, penoxsulam 23 gr ai/ha)	% Control ECHCG Obs (28 days after preemergence application, penoxsulam 7.5 gr ai/ha)	% Control ECHCG Obs (28 days after preemergence application, penoxsulam 15 gr ai/ha)	% Control ECHCG Obs (7 days after preemergence application, pretilachlor 270 gr ai/ha)	% Control ECHCG Obs (7 days after preemergence application, pretilachlor 540 gr ai/ha)	% Control ECHCG Obs (28 days after preemergence application, pretilachlor 270 gr ai/ha)	% Control ECHCG Obs (28 days after preemergence application, pretilachlor 540 gr ai/ha)
COc1cnc(OC)n2nc(NS(=O)(=O)c3c(OCC(F)F)cccc3C(F)(F)F)nc12 [Penoxsulam, 2-(2,2-difluoroethoxy)-N-(5,8-dimethoxy-[1,2,4]triazolo[1,5-c]pyrimidin-2-yl)-6-(trifluoromethyl)benzenesulfonamide]	47%	95%	7%	80%				
CCCOCCN(C(=O)CCl)c1c(CC)cccc1CC [Pretilachlor, 2-chloro-N-(2,6-diethylphenyl)-N-(2-propoxyethyl)acetamide]					3%	3%	0%	0%
